Laboratory results reported in patent publication US20260327221A1, “INHIBITORS OF CYCLIC GMP-AMP SYNTHASE AND USES THEREOF” (Ventus Therapeutics U.S., Inc., priority 2023, published 2026).

Target: hcGAS (Homo sapiens, UniProt Q8N884)
Experiment: hcGAS LCMS assay (direct measurement of cGAMP production by LC/MS)
Assay type: biochemical
Conditions: 4 h incubation with enzyme and substrates; cGAMP production by LC/MS; class symbols; read-out: hcGAS LCMS IC50
Procedure, shortened: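 Enzyme, substrates (ATP, GTP) and compound incubated 4 h, then quenched with acetonitrile/water containing 0.15 uM 13C/15N-labeled cGAMP internal standard. cGAMP formed quantified directly by LC/MS on HILIC amide column; IC50 values reported in potency bins.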

Chain of hcGAS (Q8N884 whole entry): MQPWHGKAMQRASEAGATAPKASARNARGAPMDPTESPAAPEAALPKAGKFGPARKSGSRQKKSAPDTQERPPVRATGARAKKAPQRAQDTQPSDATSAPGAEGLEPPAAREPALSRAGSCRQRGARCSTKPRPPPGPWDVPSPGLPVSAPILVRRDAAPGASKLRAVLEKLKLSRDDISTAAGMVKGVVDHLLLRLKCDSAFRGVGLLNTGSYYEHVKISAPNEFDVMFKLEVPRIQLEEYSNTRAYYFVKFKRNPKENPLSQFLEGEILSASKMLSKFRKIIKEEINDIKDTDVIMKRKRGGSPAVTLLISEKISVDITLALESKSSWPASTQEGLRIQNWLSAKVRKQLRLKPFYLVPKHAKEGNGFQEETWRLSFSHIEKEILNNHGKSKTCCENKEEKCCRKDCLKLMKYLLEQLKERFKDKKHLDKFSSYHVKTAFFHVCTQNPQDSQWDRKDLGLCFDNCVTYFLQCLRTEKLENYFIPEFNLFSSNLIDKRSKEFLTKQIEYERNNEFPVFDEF

IC50 [nM]	Structure (SMILES)
1 to 5	COc1cccnc1-c1cc(C(=O)Nc2nnc(-n3nccc3N)s2)oc(=O)c1O[C@@H](C)CO [Compound 107A, (S)—N-(5-(5-amino-1H-pyrazol-1-yl)-1,3,4-thiadiazol-2-yl)-3-((1-hydroxypropan-2-yl)oxy)-4-(3-methoxypyridin-2-yl)-2-oxo-2H-pyran-6-carboxamide]
0.5 to 1	COc1cccnc1-c1cc(C(=O)Nc2nnc(-n3nccc3N)s2)oc(=O)c1O[C@H](C)CO [Compound 107B, (R)-N-(5-(5-amino-1H-pyrazol-1-yl)-1,3,4-thiadiazol-2-yl)-3-((1-hydroxypropan-2-yl)oxy)-4-(3-methoxypyridin-2-yl)-2-oxo-2H-pyran-6-carboxamide]
< 0.5	COc1cccc(OC)c1-c1cc(C(=O)Nc2nnc(-n3nccc3N)s2)oc(=O)c1O[C@H]1CC[C@H](O)CC1 [Compound 108A, N-(5-(5-amino-1H-pyrazol-1-yl)-1,3,4-thiadiazol-2-yl)-4-(2,6-dimethoxyphenyl)-3-(((1r,4r)-4-hydroxycyclohexyl)oxy)-2-oxo-2H-pyran-6-carboxamide]
1 to 5	COc1cccc(OC)c1-c1cc(C(=O)Nc2nnc(-n3nccc3N)s2)oc(=O)c1O[C@H]1CC[C@@H](O)CC1 [Compound 108B, N-(5-(5-amino-1H-pyrazol-1-yl)-1,3,4-thiadiazol-2-yl)-4-(2,6-dimethoxyphenyl)-3-(((1s,4s)-4-hydroxycyclohexyl)oxy)-2-oxo-2H-pyran-6-carboxamide]

Further lines, the compound ahead of its results:

Structure (SMILES)	IC50 [nM]
COCCOc1c(-c2ncccc2OC2CC2)cc(C(=O)Nc2nnc(-n3nccc3N)s2)oc1=O [Compound 70, N-(5-(5-amino-1H-pyrazol-1-yl)-1,3,4-thiadiazol-2-yl)-4-(3-cyclopropoxypyridin-2-yl)-3-(2-methoxyethoxy)-2-oxo-2H-pyran-6-carboxamide]	0.5 to 1
COc1cccc(OC)c1-c1cc(C(=O)Nc2nnc(-n3nccc3N)s2)oc(=O)c1OCCN1CC2(CCS2)C1 [Compound 72, 3-(2-(1-thia-6-azaspiro[3.3]heptan-6-yl)ethoxy)-N-(5-(5-amino-1H-pyrazol-1-yl)-1,3,4-thiadiazol-2-yl)-4-(2,6-dimethoxyphenyl)-2-oxo-2H-pyran-6-carboxamide]	0.5 to 1
COCCOc1c(-c2c(C#N)cccc2OC(F)F)cc(C(=O)Nc2nnc(-n3nccc3N)s2)oc1=O [Compound 74, N-(5-(5-amino-1H-pyrazol-1-yl)-1,3,4-thiadiazol-2-yl)-4-(2-cyano-6-(difluoromethoxy)phenyl)-3-(2-methoxyethoxy)-2-oxo-2H-pyran-6-carboxamide]	0.5 to 1
COc1cccc(OC)c1-c1cc(C(=O)Nc2nnc(-n3nccc3N)s2)oc(=O)c1OCCN1CCSCC1=O [Compound 75, N-(5-(5-amino-1H-pyrazol-1-yl)-1,3,4-thiadiazol-2-yl)-4-(2,6-dimethoxyphenyl)-2-oxo-3-(2-(3-oxothiomorpholino)ethoxy)-2H-pyran-6-carboxamide]	0.5 to 1
COc1cccc(OC)c1-c1cc(C(=O)Nc2nnc(-n3nccc3N)s2)oc(=O)c1OCCCN1CCSCC1 [Compound 88, N-(5-(5-amino-1H-pyrazol-1-yl)-1,3,4-thiadiazol-2-yl)-4-(2,6-dimethoxyphenyl)-2-oxo-3-(3-thiomorpholinopropoxy)-2H-pyran-6-carboxamide]	0.5 to 1
COc1cccc(OC)c1-c1cc(C(=O)Nc2nnc(-n3nccc3N)s2)oc(=O)c1OCCN1CCCSCC1 [Compound 89, 3-(2-(1,4-thiazepan-4-yl)ethoxy)-N-(5-(5-amino-1H-pyrazol-1-yl)-1,3,4-thiadiazol-2-yl)-4-(2,6-dimethoxyphenyl)-2-oxo-2H-pyran-6-carboxamide]	0.5 to 1
COc1cccc(OC)c1-c1cc(C(=O)Nc2nnc(-n3nccc3N)s2)oc(=O)c1OCC(=O)N1CCSCC1 [Compound 90, N-(5-(5-amino-1H-pyrazol-1-yl)-1,3,4-thiadiazol-2-yl)-4-(2,6-dimethoxyphenyl)-2-oxo-3-(2-oxo-2-thiomorpholinoethoxy)-2H-pyran-6-carboxamide]	< 0.5
COc1cccc(OC)c1-c1cc(C(=O)Nc2nnc(-n3nccc3N)s2)oc(=O)c1OCCN1C2CSCC1C2 [Compound 94, 3-(2-(3-thia-6-azabicyclo[3.1.1]heptan-6-yl)ethoxy)-N-(5-(5-amino-1H-pyrazol-1-yl)-1,3,4-thiadiazol-2-yl)-4-(2,6-dimethoxyphenyl)-2-oxo-2H-pyran-6-carboxamide]	0.5 to 1
